Experimental data as given in US10231453B2, “5-substituted imidazole derivatives” (BAYER CROPSCIENCE AKTIENGESELLSCHAFT, priority 2015, dated 2019).

Legend:
[1] = tested on: Blumeria graminis fsp. hordei; assay: In vivo preventive Blumeria test (barley), Example K; conditions: 168 h, 500 ppm of active ingredient, preventive spray, evaluated 7 days after inoculation, read-out: efficacy
Description: After the spray coating has been dried, the plants are dusted with spores of Blumeria graminis fsp. hordei.

[2] = tested on: Puccinia recondita; assay: In vivo preventive test on Puccinia recondita (brown rust on wheat), Examples C and R3; conditions: Puccinia recondita, 264 h; 500 ppm of active ingredient; wheat, preventive spray, evaluated 11 days after inoculation; read-out: efficacy
[3] = tested on: Phakopsora pachyrhizi; assay: In vivo preventive Phakopsora test (soybeans), Example I; conditions: 168 h, 100 ppm of active ingredient, preventive spray, evaluated 7 days after inoculation, read-out: efficacy
[4] = tested on: Uromyces appendiculatus; assay: In vivo preventive test on Uromyces appendiculatus (bean rust), Examples G and R7; conditions: 264 h, 500 ppm of active ingredient, bean, preventive spray, evaluated 11 days after inoculation, read-out: efficacy
[5] = tested on: Alternaria solani; assay: In vivo preventive Alternaria test (tomatoes), Example H; conditions: 72 h, 100 ppm of active ingredient, preventive spray, evaluated 3 days after inoculation, read-out: efficacy
[6] = Measurement of LogP values by HPLC on reversed phase columns (EEC directive 79/831 Annex V.A8); type: physicochemical; conditions: method [a]: LC-UV, acidic range, 0.1% formic acid in water and acetonitrile as eluent; Table 1
Experimental: Measurement of Log P values was performed as outlined above.

[7] = tested on: Venturia inaequalis; assay: In vivo preventive Venturia test (apples), Example J; conditions: 240 h, read-out: efficacy
Experimental: After the spray coating has dried on, the plants are inoculated with an aqueous conidia suspension of the causal agent of apple scab (Venturia inaequalis) and then remain for 1 day in an incubation cabinet at approximately 20° C. and a relative atmospheric humidity of 100%.
The plants are then placed in a greenhouse at approximately 21° C. and a relative atmospheric humidity of approximately 90%.
The test is evaluated 10 days after the inoculation.

[8] = tested on: Botrytis cinerea; assay: In vivo preventive test on Botrytis cinerea (grey mould) on gherkin, Examples B, Q1 and R2; conditions: Botrytis cinerea, 500 ppm of active ingredient, preventive spray, evaluated 4 to 5 days after inoculation, read-out: efficacy
[9] = tested on: Septoria tritici; assay: In vivo preventive test on Septoria tritici (leaf spot on wheat), Examples E, Q3 and R5; conditions: Zymoseptoria tritici, 576 h, 500 ppm of active ingredient; wheat, preventive spray, evaluated 24 days after inoculation; read-out: efficacy
[10] = tested on: Pyrenophora teres; assay: In vivo preventive test on Pyrenophora teres (net blotch on barley), Examples D, Q2 and R4; conditions: Pyrenophora teres, 336 h, 500 ppm of active ingredient, preventive spray, evaluated 14 days after inoculation, read-out: efficacy
[11] = tested on: Pyricularia oryzae; assay: whole plant or invertebrate; type: in vivo; conditions: 192 h, read-out: efficacy
[12] = tested on: Alternaria brassicae; assay: In vivo preventive test on Alternaria brassicae (leaf spot on radish), Examples A and R1; conditions: Alternaria brassicae, 144 h, 500 ppm of active ingredient, preventive spray, evaluated 6 days after inoculation, read-out: efficacy
[13] = tested on: Sphaerotheca fuliginea; assay: In vivo preventive test on Sphaerotheca fuliginea (powdery mildew on cucurbits), Examples F and R6; conditions: Podosphaera fuliginea, 360 h; 500 ppm of active ingredient; gherkin, preventive spray, evaluated 15 days after inoculation; read-out: efficacy
[14] = tested on: Fusarium graminearum; assay: whole plant or invertebrate; type: in vivo; conditions: in Hordeum vulgare, 120 h, read-out: efficacy

Row | Compound | pest or weed control at 500 ppm [1] [%] | pest or weed control at 500 ppm [2] [%] | pest or weed control at 100 ppm [3] [%] | pest or weed control at 500 ppm [4] [%] | pest or weed control at 100 ppm [5] [%] | chromatographic logP [6] | pest or weed control at 100 ppm [7] [%] | pest or weed control at 500 ppm [8] [%] | pest or weed control at 500 ppm [9] [%] | pest or weed control at 500 ppm [10] [%] | pest or weed control at 500 ppm [11] [%] | pest or weed control at 500 ppm [12] [%] | pest or weed control at 500 ppm [13] [%] | pest or weed control at 500 ppm [14] [%]
1 | OC(Cc1cc(Cl)ncc1Cl)(Cn1cncc1Cl)C1(Cl)CC1 (centres unmarked) [Example I-17] | 70 to 79 | 80 to 89 | 90 to 100 | 90 to 100 | 90 to 100 | 2.18 | 90 to 100 | 80 to 89 | 90 to 100 | 90 to 100 | 90 to 100 | 90 to 100 | 90 to 100 | 
2 | CSc1cncn1CC(O)(Cc1ccccc1Cl)C1(Cl)CC1 (centres unmarked) [Example I-22] | 90 to 100 | 90 to 100 |  | 90 to 100 |  | 2.08 |  |  | 90 to 100 | 80 to 89 | 80 to 89 | 80 to 89 | 90 to 100 | 
3 | OC(Cc1cccnc1Cl)(Cn1cncc1Br)C1(Cl)CC1 (centres unmarked) [Example I-25] | 70 to 79 | 80 to 89 |  | 90 to 100 |  | 1.56 |  | 90 to 100 | 90 to 100 | 80 to 89 | 70 to 79 |  | 90 to 100 | 
4 | N#Cc1cncn1CC(O)(Cc1ccccc1Br)C1(Cl)CC1 (centres unmarked) [Example I-40] | 90 to 100 | 80 to 89 | 90 to 100 | 90 to 100 | 90 to 100 |  | 80 to 89 | 90 to 100 | 90 to 100 | 70 to 79 | 70 to 79 | 80 to 89 | 90 to 100 | 
5 | OC(Cc1ccc(Br)cc1Cl)(Cn1cncc1Cl)C1(Cl)CC1 (centres unmarked) [Example I-43] | 80 to 89 | 90 to 100 | 90 to 100 | 90 to 100 | 80 to 89 |  |  | 90 to 100 | 90 to 100 | 90 to 100 |  |  | 90 to 100 | 
6 | N#Cc1cncn1CC(O)(Cc1ccc(Cl)cc1)C1(Cl)CC1 (centres unmarked) [Example I-64] | 90 to 100 | 90 to 100 |  | 90 to 100 |  | 3.1 |  |  | 90 to 100 |  |  |  | 90 to 100 | 80 to 89
7 | OC(Cc1ccc(Cl)cc1Cl)(Cn1cncc1Cl)C1(Cl)CC1 (centres unmarked) [Example I-69] |  | 80 to 89 | 90 to 100 | 90 to 100 | 90 to 100 |  | 90 to 100 | 80 to 89 | 80 to 89 | 80 to 89 |  | 70 to 79 | 90 to 100 | 
8 | N#Cc1cncn1CC(O)(Cc1ccccc1Cl)CC1CC1 (centres unmarked) [Example I-84] | 90 to 100 | 90 to 100 |  | 90 to 100 |  | 2.84 |  |  | 90 to 100 | 80 to 89 | 70 to 79 |  | 90 to 100 | 
9 | N#Cc1cncn1CC(O)(Cc1ccncc1C(F)(F)F)C1(Cl)CC1 (centres unmarked) [Example I-92] | 90 to 100 | 80 to 89 |  | 90 to 100 |  | 2.18 |  |  | 90 to 100 |  | 80 to 89 |  | 90 to 100 | 
10 | N#Cc1cncn1CC(O)(Cc1ccccc1Cl)C1(F)CC1 (centres unmarked) [Example I-98] | 90 to 100 | 90 to 100 | 90 to 100 | 90 to 100 | 90 to 100 | 2.53 | 90 to 100 | 70 to 79 | 90 to 100 | 90 to 100 | 90 to 100 |  | 90 to 100 | 90 to 100
11 | N#Cc1cncn1CC(O)(Cc1ccc(F)c(Cl)c1F)C1(Cl)CC1 (centres unmarked) [Example I-101] | 90 to 100 | 90 to 100 | 90 to 100 | 90 to 100 | 90 to 100 | 3.17 | 80 to 89 |  | 90 to 100 | 90 to 100 |  |  | 90 to 100 | 
12 | N#Cc1cncn1CC(O)(Cc1ccc(F)c(F)c1F)C1(Cl)CC1 (centres unmarked) [Example I-103] | 90 to 100 | 90 to 100 | 90 to 100 | 90 to 100 | 80 to 89 | 2.92 | 80 to 89 |  | 90 to 100 | 80 to 89 |  |  | 90 to 100 | 90 to 100
13 | Cc1ccc(CC(O)(Cn2cncc2C#N)C2(Cl)CC2)c(F)c1 (centres unmarked) [Example I-107] |  | 80 to 89 | 80 to 89 | 80 to 89 | 90 to 100 | 2.97 | 80 to 89 | 90 to 100 | 90 to 100 | 90 to 100 |  |  | 90 to 100 | 
14 | OC(Cc1ccc(F)cc1F)(Cn1cncc1Cl)C1(Cl)CC1 (centres unmarked) [Example I-126] | 90 to 100 | 90 to 100 | 90 to 100 | 90 to 100 | 90 to 100 |  |  | 90 to 100 | 90 to 100 | 90 to 100 | 90 to 100 |  | 90 to 100 | 90 to 100
15 | CC(C)(C)C(O)(Cc1ccccc1F)Cn1cncc1C#N (centres unmarked) [Example I-138] | 90 to 100 | 90 to 100 | 90 to 100 | 90 to 100 |  | 2.73 | 70 to 79 | 80 to 89 | 90 to 100 |  | 80 to 89 |  | 90 to 100 | 90 to 100
16 | CC1(C(O)(Cc2cccc(F)c2F)Cn2cncc2C#N)CC1 (centres unmarked) [Example I-144] | 90 to 100 | 90 to 100 |  | 90 to 100 |  | 2.75 |  | 90 to 100 | 90 to 100 | 90 to 100 | 70 to 79 |  | 90 to 100 | 90 to 100
17 | Cc1cc(F)ccc1CC(O)(Cn1cncc1C#N)C1(Cl)CC1 (centres unmarked) [Example I-153] |  | 90 to 100 | 90 to 100 | 90 to 100 | 90 to 100 |  | 80 to 89 |  | 90 to 100 | 80 to 89 |  |  | 90 to 100 | 
18 | Cc1cc(F)ccc1CC(O)(Cn1cncc1Cl)C1(Cl)CC1 (centres unmarked) [Example I-155] |  | 80 to 89 | 90 to 100 | 90 to 100 | 90 to 100 | 2.46 | 90 to 100 | 90 to 100 | 90 to 100 | 70 to 79 |  | 70 to 79 | 90 to 100 | 
19 | N#Cc1cncn1CC(O)(Cc1cc(F)cc(F)c1)C1(Cl)CC1 (centres unmarked) [Example I-156] | 90 to 100 | 90 to 100 |  | 90 to 100 |  | 2.86 |  |  | 90 to 100 | 80 to 89 |  |  | 90 to 100 | 80 to 89
20 | N#Cc1cncn1CC(O)(Cc1cc(F)ncc1Cl)C1(Cl)CC1 (centres unmarked) [Example I-165] | 90 to 100 | 90 to 100 |  | 90 to 100 |  | 2.38 |  |  | 90 to 100 |  | 90 to 100 |  | 90 to 100 | 
